# Values joined by “and” are separate entries in the source; they are usually repeats but may differ in a detail not shown here. Equal values may be shown once.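 Dose response: 5 concentrations. Exposure: 48 h. Format: 96-well plates. Endpoint: linear interpolation; highest concentration if not reached. GI50: concentration for 50% inhibition of growth. TGI is the concentration that stops growth completely.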 Where a SMILES comes first, the peptide text is derived from it. [ ]: non-standard residue; d: D form. The star is where a group is joined. hSer = N[CH](CCO)C(=O)O; Boc = CC(C)(C)OC(=O)*; Bn = c1ccc(C*)cc1
# What was measured:
# Assay in all cases: NCI anticancer screen, dose series, 48 h
# 786-0 renal = system: 786-0 renal
# A498 renal = system: A498 renal
# A549 NSCLC = system: A549 NSCLC
# ACHN renal = system: ACHN renal
# BT-549 breast = system: BT-549 breast
# CAKI-1 renal = system: CAKI-1 renal
# CCRF-CEM leukemia = system: CCRF-CEM leukemia
# COLO 205 colon = system: COLO 205 colon
# DU-145 prostate = system: DU-145 prostate
# EKVX NSCLC = system: EKVX NSCLC
# HCC-2998 colon = system: HCC-2998 colon
# HCT-116 colon = system: HCT-116 colon
# HCT-15 colon = system: HCT-15 colon
# HL-60(TB) leukemia = system: HL-60(TB) leukemia
# HOP-62 NSCLC = system: HOP-62 NSCLC
# HOP-92 NSCLC = system: HOP-92 NSCLC
# HS 578T breast = system: HS 578T breast
# HT29 colon = system: HT29 colon
# IGROV1 ovarian = system: IGROV1 ovarian
# K-562 leukemia = system: K-562 leukemia
# KM12 colon = system: KM12 colon
# LOX IMVI melanoma = system: LOX IMVI melanoma
# M14 melanoma = system: M14 melanoma
# MALME-3M melanoma = system: MALME-3M melanoma
# MDA-MB-231 breast = system: MDA-MB-231 breast
# MDA-MB-435 = system: MDA-MB-435
# MOLT-4 leukemia = system: MOLT-4 leukemia
# NCI-H226 lung = system: NCI-H226 lung
# NCI-H23 lung = system: NCI-H23 lung
# NCI-H460 lung = system: NCI-H460 lung
# NCI-H522 lung = system: NCI-H522 lung
# NCI/ADR-RES ovarian = system: NCI/ADR-RES ovarian
# OVCAR-3 ovarian = system: OVCAR-3 ovarian
# OVCAR-4 ovarian = system: OVCAR-4 ovarian
# OVCAR-5 ovarian = system: OVCAR-5 ovarian
# OVCAR-8 ovarian = system: OVCAR-8 ovarian
# PC-3 prostate = system: PC-3 prostate
# RPMI-8226 leukemia = system: RPMI-8226 leukemia
# RXF 393 renal = system: RXF 393 renal
# SF-268 CNS = system: SF-268 CNS
# SF-295 CNS = system: SF-295 CNS
# SF-539 CNS = system: SF-539 CNS
# SK-MEL-2 melanoma = system: SK-MEL-2 melanoma
# SK-MEL-28 melanoma = system: SK-MEL-28 melanoma
# SK-MEL-5 melanoma = system: SK-MEL-5 melanoma
# SK-OV-3 ovarian = system: SK-OV-3 ovarian
# SN12C renal = system: SN12C renal
# SNB-19 CNS = system: SNB-19 CNS
# SNB-75 CNS = system: SNB-75 CNS
# SR leukemia = system: SR leukemia
# SW-620 colon = system: SW-620 colon
# T-47D breast = system: T-47D breast
# TK-10 renal = system: TK-10 renal
# U251 CNS = system: U251 CNS
# UACC-257 melanoma = system: UACC-257 melanoma
# UACC-62 melanoma = system: UACC-62 melanoma
# UO-31 renal = system: UO-31 renal
# MCF7 breast = system: MCF7 breast
compound,measurement,setting,value
O=C(/C=C1\C(=O)N(Cc2ccccc2)c2ccccc21)c1ccc(OCCN2CCCCC2)cc1,GI50,786-0 renal,1.58 µM
same,TGI,786-0 renal,3.06 µM
same,GI50,A498 renal,14.2 µM
same,TGI,A498 renal,28.8 µM
same,GI50,A549 NSCLC,8.42 µM
same,TGI,A549 NSCLC,21.6 µM
same,GI50,ACHN renal,1.63 µM
same,TGI,ACHN renal,2.98 µM
same,GI50,BT-549 breast,2.07 µM
same,TGI,BT-549 breast,4.05 µM
same,GI50,CAKI-1 renal,1.78 µM
same,TGI,CAKI-1 renal,4.02 µM
same,GI50,CCRF-CEM leukemia,1.83 µM
same,TGI,CCRF-CEM leukemia,5.9 µM
same,GI50,COLO 205 colon,1.77 µM
same,TGI,COLO 205 colon,3.27 µM
same,GI50,DU-145 prostate,2.26 µM
same,TGI,DU-145 prostate,5.05 µM
same,GI50,EKVX NSCLC,2.36 µM
same,TGI,EKVX NSCLC,7.48 µM
same,GI50,HCC-2998 colon,1.86 µM
same,TGI,HCC-2998 colon,3.47 µM
same,GI50,HCT-116 colon,1.3 µM
same,TGI,HCT-116 colon,2.67 µM
same,GI50,HCT-15 colon,1.71 µM
same,TGI,HCT-15 colon,3.31 µM
same,GI50,HL-60(TB) leukemia,1.71 µM
same,TGI,HL-60(TB) leukemia,4.39 µM
same,GI50,HOP-62 NSCLC,18.4 µM
same,TGI,HOP-62 NSCLC,32.4 µM
same,GI50,HOP-92 NSCLC,1.36 µM
same,TGI,HOP-92 NSCLC,2.77 µM
same,GI50,HS 578T breast,3 µM
same,TGI,HS 578T breast,9.91 µM
same,GI50,HT29 colon,1.82 µM
same,TGI,HT29 colon,3.36 µM
same,GI50,IGROV1 ovarian,1.76 µM
same,TGI,IGROV1 ovarian,3.55 µM
same,GI50,K-562 leukemia,1.84 µM
same,TGI,K-562 leukemia,6.53 µM
same,GI50,KM12 colon,5.9 µM
same,TGI,KM12 colon,20.8 µM
same,GI50,LOX IMVI melanoma,1.71 µM
same,TGI,LOX IMVI melanoma,3.14 µM
same,GI50,M14 melanoma,1.92 µM
same,TGI,M14 melanoma,3.72 µM
same,GI50,MALME-3M melanoma,1.71 µM
same,TGI,MALME-3M melanoma,3.39 µM
same,GI50,MDA-MB-231 breast,1.92 µM
same,TGI,MDA-MB-231 breast,3.88 µM
same,GI50,MDA-MB-435,2.49 µM
same,TGI,MDA-MB-435,9.33 µM
same,GI50,MOLT-4 leukemia,1.87 µM
same,TGI,MOLT-4 leukemia,6.44 µM
same,GI50,NCI-H226 lung,16.8 µM
same,TGI,NCI-H226 lung,39.7 µM
same,GI50,NCI-H23 lung,3.47 µM
same,TGI,NCI-H23 lung,14.5 µM
same,GI50,NCI-H460 lung,3.57 µM
same,TGI,NCI-H460 lung,11.9 µM
same,GI50,NCI-H522 lung,1.71 µM
same,TGI,NCI-H522 lung,3.21 µM
same,GI50,NCI/ADR-RES ovarian,3.14 µM
same,TGI,NCI/ADR-RES ovarian,11.7 µM
same,GI50,OVCAR-3 ovarian,1.75 µM
same,TGI,OVCAR-3 ovarian,3.2 µM
same,GI50,OVCAR-4 ovarian,2.99 µM
same,TGI,OVCAR-4 ovarian,11.3 µM
same,GI50,OVCAR-5 ovarian,1.76 µM
same,TGI,OVCAR-5 ovarian,3.6 µM
same,GI50,OVCAR-8 ovarian,2.13 µM
same,TGI,OVCAR-8 ovarian,4.16 µM
same,GI50,PC-3 prostate,1.85 µM
same,TGI,PC-3 prostate,3.92 µM
same,GI50,RPMI-8226 leukemia,2.07 µM
same,TGI,RPMI-8226 leukemia,4.72 µM
same,GI50,RXF 393 renal,1.65 µM
same,TGI,RXF 393 renal,3.17 µM
same,GI50,SF-268 CNS,2.98 µM
same,TGI,SF-268 CNS,10.7 µM
same,GI50,SF-295 CNS,12.7 µM
same,TGI,SF-295 CNS,25.9 µM
same,GI50,SF-539 CNS,2.07 µM
same,TGI,SF-539 CNS,4.14 µM
same,GI50,SK-MEL-2 melanoma,11.7 µM
same,TGI,SK-MEL-2 melanoma,24.3 µM
same,GI50,SK-MEL-28 melanoma,2.09 µM
same,TGI,SK-MEL-28 melanoma,4.36 µM
same,GI50,SK-MEL-5 melanoma,12.6 µM
same,TGI,SK-MEL-5 melanoma,25.4 µM
same,GI50,SK-OV-3 ovarian,15 µM
same,TGI,SK-OV-3 ovarian,28.2 µM
same,GI50,SN12C renal,1.9 µM
same,TGI,SN12C renal,4.03 µM
same,GI50,SNB-19 CNS,2.26 µM
same,TGI,SNB-19 CNS,5.99 µM
same,GI50,SNB-75 CNS,11.8 µM
same,TGI,SNB-75 CNS,24.4 µM
same,GI50,SR leukemia,1.77 µM
same,TGI,SR leukemia,9.55 µM
same,GI50,SW-620 colon,1.7 µM
same,TGI,SW-620 colon,3.3 µM
same,GI50,T-47D breast,1.6 µM
same,TGI,T-47D breast,3.4 µM
same,GI50,TK-10 renal,1.58 µM
same,TGI,TK-10 renal,2.97 µM
same,GI50,U251 CNS,1.91 µM
same,TGI,U251 CNS,3.35 µM
same,GI50,UACC-257 melanoma,12.9 µM
same,TGI,UACC-257 melanoma,25.9 µM
same,GI50,UACC-62 melanoma,1.83 µM
same,TGI,UACC-62 melanoma,3.62 µM
same,GI50,UO-31 renal,1.54 µM
same,TGI,UO-31 renal,2.87 µM
CCSc1nc(=S)n(-c2ccccc2)c(C)c1C(C)=O,TGI,786-0 renal,> 100 µM
same,TGI,A498 renal,> 100 µM
same,TGI,A549 NSCLC,> 100 µM
same,TGI,ACHN renal,> 100 µM
same,TGI,CAKI-1 renal,> 100 µM
same,TGI,CCRF-CEM leukemia,> 100 µM
same,TGI,COLO 205 colon,> 100 µM
same,TGI,DU-145 prostate,> 100 µM
same,TGI,EKVX NSCLC,> 100 µM
same,TGI,HCC-2998 colon,> 100 µM
same,TGI,HCT-116 colon,> 100 µM
same,TGI,HCT-15 colon,> 100 µM
same,TGI,HL-60(TB) leukemia,> 100 µM
same,TGI,HOP-62 NSCLC,> 100 µM
same,TGI,HOP-92 NSCLC,> 100 µM
same,TGI,HS 578T breast,> 100 µM
same,TGI,HT29 colon,> 100 µM
same,TGI,IGROV1 ovarian,> 100 µM
same,TGI,K-562 leukemia,> 100 µM
same,TGI,KM12 colon,> 100 µM
same,TGI,LOX IMVI melanoma,> 100 µM
same,TGI,M14 melanoma,> 100 µM
same,TGI,MALME-3M melanoma,> 100 µM
same,TGI,MCF7 breast,> 100 µM
same,TGI,MDA-MB-231 breast,> 100 µM
same,TGI,MDA-MB-435,> 100 µM
same,TGI,MOLT-4 leukemia,> 100 µM
same,TGI,NCI-H226 lung,> 100 µM
same,TGI,NCI-H23 lung,> 100 µM
same,TGI,NCI-H460 lung,> 100 µM
same,TGI,NCI-H522 lung,> 100 µM
same,TGI,NCI/ADR-RES ovarian,> 100 µM
same,TGI,OVCAR-3 ovarian,> 100 µM
same,TGI,OVCAR-4 ovarian,> 100 µM
same,TGI,OVCAR-5 ovarian,> 100 µM
same,TGI,OVCAR-8 ovarian,> 100 µM
same,TGI,PC-3 prostate,> 100 µM
same,TGI,RPMI-8226 leukemia,> 100 µM
same,TGI,RXF 393 renal,> 100 µM
same,TGI,SF-268 CNS,> 100 µM
same,TGI,SF-295 CNS,> 100 µM
same,TGI,SF-539 CNS,> 100 µM
same,TGI,SK-MEL-2 melanoma,> 100 µM
same,TGI,SK-MEL-28 melanoma,> 100 µM
same,TGI,SK-MEL-5 melanoma,> 100 µM
same,TGI,SK-OV-3 ovarian,> 100 µM
same,TGI,SN12C renal,> 100 µM
same,TGI,SNB-19 CNS,> 100 µM
same,TGI,SNB-75 CNS,> 100 µM
same,TGI,SR leukemia,> 100 µM
same,TGI,SW-620 colon,> 100 µM
same,TGI,T-47D breast,> 100 µM
same,TGI,TK-10 renal,> 100 µM
same,TGI,U251 CNS,> 100 µM
same,TGI,UACC-257 melanoma,> 100 µM
same,TGI,UACC-62 melanoma,> 100 µM
same,TGI,UO-31 renal,> 100 µM
CC(C)CC(NC(=O)OC(C)(C)C)C(=O)NC(CCOCc1ccccc1)C(N)=O (stereo not drawn) (Boc-Leu-[hSer](Bn)-NH2; configuration not given here),GI50,HOP-92 NSCLC,21.4 µg/mL
same,TGI,HOP-92 NSCLC,57.4 µg/mL
same,GI50,SK-OV-3 ovarian,46.1 µg/mL
Oc1c(Cl)c(Cl)c(Cl)c(Cl)c1Cl (tested in a mixture with another compound),TGI,CCRF-CEM leukemia,62.3 µM
same,TGI,HL-60(TB) leukemia,39 µM and 10 µM
same,TGI,NCI-H226 lung,41.7 µM
CCCCCCCCCCCCCCCCNCCC[C@@H](C)[C@H]1CC[C@H]2[C@@H]3[C@H](OCCCN)C[C@@H]4C[C@H](OCCCN)CC[C@]4(C)[C@H]3C[C@H](OCCCN)[C@]12C,GI50,CAKI-1 renal,1.9 µM
same,TGI,CAKI-1 renal,4.58 µM
same,GI50,COLO 205 colon,2.52 µM
same,TGI,COLO 205 colon,5.13 µM
same,GI50,KM12 colon,2.18 µM
same,TGI,KM12 colon,5.03 µM
same,GI50,M14 melanoma,2.5 µM
same,TGI,M14 melanoma,5.65 µM
same,GI50,MDA-MB-435,2.28 µM
same,TGI,MDA-MB-435,6.57 µM
same,GI50,NCI-H23 lung,2.39 µM
same,TGI,NCI-H23 lung,5.4 µM
same,GI50,NCI-H522 lung,2.25 µM
same,TGI,NCI-H522 lung,5.36 µM
same,GI50,SF-268 CNS,2.17 µM
same,TGI,SF-268 CNS,4.95 µM
same,GI50,SK-MEL-2 melanoma,2.48 µM
same,TGI,SK-MEL-2 melanoma,5.35 µM
same,GI50,SW-620 colon,2.18 µM
same,TGI,SW-620 colon,4.94 µM
same,GI50,UO-31 renal,2.53 µM
same,TGI,UO-31 renal,5.21 µM
